According to US12102638B2 (Urovant Sciences GmbH, priority 2017, dated 2024):
Like-named read-outs stand apart in the source and are kept apart here.

How the values were obtained:
Format in all cases: in vivo, human
men and women with OAB = test: Phase 2b study in OAB, efficacy (voiding diary)
From the text: Part 2 was designed to continue to assess the safety and efficacy of concomitant dosing. […] Subjects in both Part 1 and Part 2 had the option of enrolling in a 1-year extension. Participants were required to keep a voiding diary, recording the occurrence of each strong urge, total incontinence, and urge incontinence episode. Efficacy data for Part 1 and Part 2 are summarized herein.
The total number of urgency incontinence episodes must have exceeded the total number of stress incontinence episodes for all subjects.

[1] = effect of food on oral absorption (single and multiple dose); conditions: for mean AUC0-24 with food compared to fasted state / mean Cmax with food compared to fasted state: 150 mg multiple oral doses, middle-aged and elderly females
[2] = multiple rising dose Phase 1 pharmacokinetics in healthy subjects; conditions: for concentration at 14 days: plasma, oral, read-out: Ctrough
healthy subjects = test: maximum MA4 heart rate in multiple-dose Phase 1 study; conditions: Day 14
Procedure: More intensive assessments of heart rate and blood pressure were performed in healthy volunteers in several Phase 1 studies. […] Doses ranged from 25 to 400 mg once daily for 7 to 28 days depending on the cohort. Least squares mean and 90% confidence intervals of maximum change from baseline in moving average of heart rate over 4 hours postdose (MA4 HR) are presented in Table 17.

[3] = vibegron 3 mg once daily, OAB Wet subjects
[4] = vibegron 3 mg once daily, Part 1
[5] = vibegron 15 mg once daily, OAB Wet subjects
[6] = vibegron 15 mg once daily, Part 1
[7] = vibegron 50 mg once daily, OAB Wet subjects
[8] = vibegron 50 mg once daily, Part 1
[9] = vibegron 100 mg once daily, OAB Wet subjects
[10] = 150 mg multiple doses, middle-aged females, Day 14
[11] = single 50 mg, Japanese young males
[12] = single 50 mg, non-Japanese young males

O=C(Nc1ccc(C[C@@H]2CC[C@H]([C@H](O)c3ccccc3)N2)cc1)[C@@H]1CCc2nccc(=O)n21 [vibegron, (6S)—N-[4-[[(2S,5R)-5-[(R)-hydroxy(phenyl)methyl]pyrrolidin-2-yl]methyl]phenyl]-4-oxo-7,8-dihydro-6H-pyrrolo[1,2-a]pyrimidine-6-carboxamide]
dose-response relationship (men and women with OAB; between 50 and 100 mg once daily): relatively shallow dose-response relationship | Total Incontinence Episodes, difference from placebo Week 8, LS means (men and women with OAB; [3]): −0.18 | Urgency Incontinence Episodes, difference from placebo Week 8, LS means (men and women with OAB; [3]): −0.28 | Micturitions, difference from placebo Week 8, LS means (men and women with OAB; [4]): −0.46 | Urgency Episodes, difference from placebo Week 8, LS means (men and women with OAB; [4]): −0.18 | Total Incontinence Episodes, difference from placebo Week 8, LS means (men and women with OAB; [5]): −0.48 | Urgency Incontinence Episodes, daily number, Week 8 mean (men and women with OAB; [5]): 1.12 | Urgency Incontinence Episodes, difference from placebo Week 8, LS means (men and women with OAB; [5]): −0.57 | Micturitions, difference from placebo Week 8, LS means (men and women with OAB; [6]): −0.45 | Urgency Episodes, difference from placebo Week 8, LS means (men and women with OAB; [6]): −0.67 | Total Incontinence Episodes, difference from placebo Week 8, LS means (men and women with OAB; [7]): −0.60 | Urgency Incontinence Episodes, difference from placebo Week 8, LS means (men and women with OAB; [7]): −0.72 | Micturitions, difference from placebo Week 8, LS means (men and women with OAB; [8]): −0.64 | Urgency Episodes, difference from placebo Week 8, LS means (men and women with OAB; [8]): −0.76 | average number of daily micturitions compared to placebo at Week 8 (men and women with OAB; vibegron 100 mg and 50 mg treatment groups, Part 1): statistically significant decreases | Total Incontinence Episodes, daily number, Week 8 mean (men and women with OAB; [9]): 1.12 | Total Incontinence Episodes, difference from placebo Week 8, LS means (men and women with OAB; [9]): −0.58 | Urgency Incontinence Episodes, difference from placebo Week 8, LS means (men and women with OAB; [9]): −0.71 | Micturitions, difference from placebo Week 8, LS means (men and women with OAB; vibegron 100 mg once daily, Part 1): −0.91 | Micturitions, difference in LS means 100 mg − 50 mg (men and women with OAB; week 8): −0.27 | Total incontinence, difference in LS means 100 mg − 50 mg (men and women with OAB; week 8): 0.02 | Urgency Episodes, difference in LS means 100 mg − 50 mg (men and women with OAB; week 8): −0.48 | Urgency incontinence, difference in LS means 100 mg − 50 mg (men and women with OAB; week 8): 0.01 | reduction in mean AUC0-24hr with food vs fasted [1, 10]: 20% | reduction in mean Cmax with food vs fasted [1, 10]: 47% | mean AUC0-24 with food compared to fasted state ([1]; Day 1): ~42% | mean Cmax with food compared to fasted state ([1]; Day 1): 59% | mean AUC0-24 with food compared to fasted state ([1]; Day 14): ~20% | mean Cmax with food compared to fasted state ([1]; Day 14): 43% | Ctrough ([1]; multiple dose 150 mg, day 14, Non-Japanese middle-aged females, Fasted): 62.7 ± 12.4 ng/mL | reduction in AUC0-inf with standard Japanese breakfast [1, 11]: 37% | reduction in Cmax with standard Japanese breakfast [1, 11]: 52% | delay in Tmax with high-fat meal vs fasted [1, 12]: ~1 h | reduction in AUC0-inf with high-fat meal vs fasted [1, 12]: 46% | reduction in Cmax with high-fat meal vs fasted [1, 12]: 67% | fraction of dose excreted at steady state (fe0-24hr, ss) ([2]; 100 mg, elderly subjects): ~17% | fraction of dose excreted at steady state (fe0-24hr, ss) ([2]; 100 and 150 mg, young males): ~14% | steady state exposure (AUC0-24) higher in elderly Japanese than elderly non-Japanese ([2]; Day 14): 35% | steady state Cmax in elderly compared to young males ([2]; QD doses of 100 mg): ~1.3 fold | concentration at 14 days ([2]; both sexes, human, 100 mg, multiple dose 100 mg, after 14 days, Elderly Male and Female): 54.2 ng/mL | Cmax higher in elderly and females than healthy young males ([2]; human, in vivo): 50-70% | Cmax increased in elderly Japanese compared to elderly non-Japanese ([2]; human, in vivo): 82% | steady state AUC in middle-aged females compared to middle-aged males ([2]; human, in vivo): ~1.5 fold | steady state exposures higher in Japanese than non-Japanese young males ([2]; human, in vivo): ~30% | concentration at 14 days ([2]; male, human, 50 mg, multiple dose 50 mg, after 14 days, healthy young males): 15.2 ng/mL | concentration at 14 days ([2]; male, human, 100 mg, multiple dose 100 mg, after 14 days, healthy young males, Japanese): 41 ± 11 ng/mL | concentration at 14 days ([2]; male, human, 100 mg, multiple dose 100 mg, after 14 days, healthy young males): 31.9 ng/mL | t1/2, harmonic mean ± pseudo SD ([2]; multiple dose 150 mg, after 14 days, healthy young males): 79.2 ± 9.2 h | AUC0-24 ([2]; multiple dose 200 mg, after 14 days, healthy young males): 3200 ± 1120 ng·h/mL | t1/2, harmonic mean ± pseudo SD ([2]; multiple dose 400 mg, after 14 days, healthy young males): 58.9 ± 5.9 h | time to steady state concentrations ([2]; once daily dosing): ≤ 7 days | exposures (AUC) higher in females compared with males ([2]; regardless of age): 50% | Maximum MA4 HR change from baseline, LS mean (healthy subjects; 25 mg once daily): 1.47 bpm | Maximum MA4 HR, Difference from Placebo (healthy subjects; 25 mg once daily): −1.60 bpm | Maximum MA4 HR change from baseline, LS mean (healthy subjects; 50 mg once daily): 1.50 bpm | Maximum MA4 HR, Difference from Placebo (healthy subjects; 50 mg once daily): −1.57 bpm | Maximum MA4 HR change from baseline, LS mean (healthy subjects; 100 mg once daily): 3.28 bpm | Maximum MA4 HR change from baseline, LS mean (healthy subjects; 150 mg once daily): 3.17 bpm | Maximum MA4 HR, Difference from Placebo (healthy subjects; 150 mg once daily): 0.10 bpm
